Assay results from US20210108198A1, “APPLICATION OF COMPOUND OR TRADITIONAL CHINESE MEDICINE EXTRACT IN PREPARATION OF NUCLEIC ACID DELIVERY AGENT AND RELATED PRODUCTS THEREOF” (INSTITUTE OF BASIC MEDICAL SCIENCES CHINESE ACADEMY OF …, priority 2017, published 2021).
“Also recorded” adds a separate entry of the source.

Legend:
[1] = system: fibronectin protein expression in MRC-5 cells; experiment: Western blot of fibronectin after lipid-mediated delivery of anti-fibrotic HJT-sRNA into TGF-β1 stimulated MRC-5 cells; assay type: cell-based; conditions: nucleic acid 400 nM; TGF-β1 3 ng/mL; preparation method not given; FIG. 102
Protocol: 3.3.1 MRC-5 cell (pulmonary embryonic fibroblast), and A549 cell (human lung adenocarcinoma cell) were cultured to logarithmic growth phase, and then plated into 12-well plates at a cell density of 6×10^5/1 mL medium/well; MRC-5 cells were cultured in Eagle's MEM medium (MEM, Gibco); A549 cells were cultured in Ham's F-12 medium (HyClone); followed by incubation overnight at 37° C., and the follow-up experiments were performed after the cells were attached to the walls.
4) Lipid nucleic acid mixture: the mixture of lipid and nucleic acid prepared from the step 2 were added into cells and mixed, and the final concentration of nucleic acid was 400 nM.
3.3.3 After 24 hours of treatment, the cells were stimulated with the stimulant (1 μg/mL poly (I:C) (P1530, Sigma-Aldrich) as double-stranded RNA viruses mimetics) or 3 ng/mL transforming growth factor TGFβ1 (Pepro Tech)). […]

[2] = In vivo delivery of single-stranded sRNA by single lipid via gavage (blood, stomach, small intestine, liver); design: species or system C57 mice; conditions: 10 μl lipid, 1 nmol each sRNA (PGY-sRNA-23/-26/-32), heating method, 6 hours or 12 hours after administration
From the text: Tissues sampled: live/stomach/small intestine.

A549 cell = experiment: RT-qPCR detection of nucleic acid delivered by lipid into A549 cells; assay type: cell-based, human; conditions: double-stranded HJT-sRNA-m7 100 nM; reverse evaporation method; 12 hours; FIG. 99
Protocol: 3.1 NCI-N87 cell (gastric cancer cell), MRC-5 cell (lung fibroblast), A549 cell (lung cancer cell) were cultured to logarithmic growth phase, and then plated to a six-well plate at cell density of 1×10^6/2 mL medium/well; MRC-5 cell was cultured in Eagle's MEM medium (MEM, Gibco); A549 cell was cultured in Ham's F-12 medium (HyClone); NCI-N87 cell was cultured in RPMI-1640 medium (HyClone); followed by incubation overnight at 37° C., and the follow-up experiments were performed after the cells were attached to the walls.
4) Lipid nucleic acid mixture: the mixture of lipid and HJT-sRNA-m7 prepared from the step 2 were added into cells and mixed, and the final concentration of RNA was kept at 200 nM.
3.3 After co-incubation with the small RNA for 3 hours, the cells were washed 2-3 times with PBS. The cells were harvested with TRIzol lysis buffer, and the total RNA was extracted. The abundance of small RNA that entered cells was detected by RT-qPCR, and the localization of RNA was detected by fluorescence in situ hybridization; protocols of each detection method were as follows:
3.3.1 RT-qPCR Detection of Small RNA (Taqman Probe Method)
3.3.2 RT-qPCR Detection of Small RNA (SYBR Green Dye Method)
Mixtures of soybean PC, lipid No. 11 (18:0/18:2) and lipid No. 12 (16:0/18:2), and various small RNA (see below Table 3) were prepared by the reverse evaporation method and then added into A549 cell line (the final concentration of sRNA was 200 nM); the negative control group (control) was directly added with the same concentration of sRNA; the positive control group (RNAimax) was transfected with Lipofectamine RNAimax (transfection reagent 6 μl/well). The abundance of sRNA in the cells was detected by Taqman probe after 3 hours, and the relative expression level of sRNA was calculated by 2-ΔCt method.
3.1.3 After co-incubation with cells for 12-24 hours, the cells were washed twice with PBS. The cells were harvested with TRIzol lysis buffer (purchased from Sigma-Aldrich), and total RNA was extracted. The abundance of HJT-sRNA-m7 that entered the cells was detected by RT-qPCR; the protocols were as follows:
4368813) was used to reverse transcribe sRNA to cDNA by stem-loop method (see, e.g. Real-time quantification of microRNAs by stem-loop RT-PCR, Nucleic Acids Res. 2005 Nov. 27; 33(20):e179, incorporated by reference herein).

A549 cells [3] = experiment: Digital PCR (ddPCR) detection of the efficiency of nucleic acid delivery by lipid; assay type: cell-based, human
Protocol: (§1) 2.2 Experimental method: the total cellular RNA was collected and extracted by TRIzol lysis buffer according to the above methods, and reverse transcribed to cDNA using High capacity cRNA Reverse Transcription Kit, and the cDNA from different groups was subject to digital PCR reaction. Refering to the QX200 Droplet Reader and QuantaSoft Software manual for the protocols, the results were analyzed using QuantaSoft software.
as §1, with “method:” for “method: the”, “total” for “total cellular”, “method,” for “methods,”, “subjected” for “subject”, “Refer” for “Refering”, “protocols;” for “protocols,”
(§2) 2.2 Experimental method: Total RNA was collected and extracted by TRIzol lysis buffer according to the above method, and reverse transcribed to cDNA using TaqMan™ MicroRNA Reverse Transcription KitHigh, and the cDNA from different groups was subjected to digital PCR reaction. Refer to the QX200 Droplet Reader and QuantaSoft Software manual for the protocols; the results were analyzed using QuantaSoft software.
as §2, with “reversed” for “reverse transcribed”, “High capacity cRNA” for “TaqMan™ MicroRNA”, “Kit,” for “KitHigh,”

A549 cells [4] = experiment: Confocal fluorescence microscopy of nucleic acid delivered by lipid in cells; assay type: cell-based, human; conditions: 4 μl lipid, boiling method; 6 hours of co-incubation
Protocol: Experimental materials: A549 cells (purchased from the Cell Center of the Chinese Academy of Medical Sciences), PGY-sRNA-6-Cy3 (purchased from Ribobio Biotechnology Co., Ltd.), lipid No. 41, Zeiss LSM780 (purchased from Zeiss, Germany), Alexa Fluor® 488 phalloidin (purchased from Invitrogen, USA), DAPI (purchased from Invitrogen, USA), paraformaldehyde (purchased from sigma, USA).
(§3) Experimental methods: PGY-sRNA-6-FAM was dissolved in 100 μl water, mixed with 4 μl lipid, and prepared by the boiling method. Then the mixture was dropped into A549 cells, and after 6 hours of co-incubation, the samples were washed three times with PBS, fixed with 4% paraformaldehyde, washed three times with PBS, stained with Alexa Fluor® 488 phalloidin for 30 min, washed 3 times with PBS, and stained with DAPI for 5 min, washed with PBS, and then sealed.
as §3, with “method:” for “methods:”, “water, and” for “water,”, “by” for “by the”, “Then,” for “Then”, “PBS washed,” for “washed with PBS,”

CCCCCCCC/C=C\CCCCCCCCCCCC(=O)O[C@H](COC(=O)CCCCCCCCCCCCCCC)COP(=O)(O)OCCN [No. 40, (2-aminoethoxy)[(2R)-2-[(13Z)-docos-13-enoyloxy]-3-(hexadecanoyloxy)propoxy]phosphinic acid]
fibronectin protein expression after delivery of double-stranded HJT-sRNA-m7 (Western blot) [1]: to down-regulate fibronectin protein expression
entry of single-stranded small RNA into mouse blood (RT-qPCR) [2]: could effectively deliver sRNA single-stranded nucleic acid into mouse blood via oral administration; also recorded: the delivery effect was better than POPC and Lipofectamine RNAiMAX
delivery effect relative to RNAiMAX (real-time PCR) (A549 cell): ½
delivery of HJT-sRNA-m7 dsRNA (ddPCR) (A549 cells [3]; boiling method, 6 hours): could effectively deliver HJT-sRNA-m7 dsRNA into A549 cells
delivery of HJT-sRNA-m7 dsRNA (ddPCR) (A549 cells [3]; reverse evaporation method, 6 hours (No. 39: 6 hours, 12 hours)): could effectively deliver HJT-sRNA-m7 dsRNA into A549 cells
entry of PGY-sRNA-6-Cy3 observed under the confocal microscopy (A549 cells [4]): could effectively deliver single-stranded RNA into A549 cells
